# The supplement of paper PMC10307832
# What was measured:
# Experiment in all cases: relative viability (nuclei count vs DMSO), 5 days (fraction); higher = more cells survive
# Erlotinib + Pictilisib = compound: C#Cc1cccc(Nc2ncnc3cc(OCCOC)c(OCCOC)cc23)c1 [Erlotinib] + CS(=O)(=O)N1CCN(Cc2cc3nc(-c4cccc5[nH]ncc45)nc(N4CCOCC4)c3s2)CC1 [Pictilisib] (partner 1 µM)
# In short: (§1)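 Five library-drug doses in √10 steps were combined with a fixed anchor-drug dose, or a single drug was given alone, by pin tool to lung cancer cell lines in 1536-well plates the day after seeding. Nuclei were stained and counted after 5 days. Relative viability is the nuclei count in treated wells over that in vehicle wells, taken as the median of duplicate plates.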
# Erlotinib + Linsitinib = compound: C#Cc1cccc(Nc2ncnc3cc(OCCOC)c(OCCOC)cc23)c1 [Erlotinib] + C[C@]1(O)C[C@@H](c2nc(-c3ccc4ccc(-c5ccccc5)nc4c3)c3c(N)nccn32)C1 [Linsitinib] (partner 1 µM)
# In short: as §1
# AT9283 + Luminespib = compound: O=C(Nc1c[nH]nc1-c1nc2ccc(CN3CCOCC3)cc2[nH]1)NC1CC1 [AT9283] + CCNC(=O)c1noc(-c2cc(C(C)C)c(O)cc2O)c1-c1ccc(CN2CCOCC2)cc1 [Luminespib] (partner 0.01 µM)
# In short: as §1
# Erlotinib + Lapatinib = compound: C#Cc1cccc(Nc2ncnc3cc(OCCOC)c(OCCOC)cc23)c1 [Erlotinib] + CS(=O)(=O)CCNCc1ccc(-c2ccc3ncnc(Nc4ccc(OCc5cccc(F)c5)c(Cl)c4)c3c2)o1 [Lapatinib] (partner 2 µM)
# In short: as §1
# AT9283 + Bortezomib = compound: O=C(Nc1c[nH]nc1-c1nc2ccc(CN3CCOCC3)cc2[nH]1)NC1CC1 [AT9283] + CC(C)C[C@H](NC(=O)[C@H](Cc1ccccc1)NC(=O)c1cnccn1)B(O)O [Bortezomib] (partner 0.002 µM)
# In short: as §1
Cell Line,relative viability (Erlotinib + Pictilisib; first compound 0.02 µM),relative viability (Erlotinib + Pictilisib; first compound 0.2 µM),relative viability (Erlotinib + Pictilisib; first compound 0.6325 µM),relative viability (Erlotinib + Pictilisib; first compound 2 µM),relative viability (Erlotinib + Linsitinib; first compound 0.02 µM),relative viability (Erlotinib + Linsitinib; first compound 0.2 µM),relative viability (Erlotinib + Linsitinib; first compound 0.6325 µM),relative viability (Erlotinib + Linsitinib; first compound 2 µM),relative viability (AT9283 + Luminespib; first compound 0.003 µM),relative viability (AT9283 + Luminespib; first compound 0.03 µM),relative viability (AT9283 + Luminespib; first compound 0.09487 µM),relative viability (AT9283 + Luminespib; first compound 0.3 µM),relative viability (Erlotinib + Lapatinib; first compound 0.02 µM),relative viability (Erlotinib + Lapatinib; first compound 0.2 µM),relative viability (Erlotinib + Lapatinib; first compound 0.6325 µM),relative viability (Erlotinib + Lapatinib; first compound 2 µM),relative viability (AT9283 + Bortezomib; first compound 0.003 µM),relative viability (AT9283 + Bortezomib; first compound 0.03 µM),relative viability (AT9283 + Bortezomib; first compound 0.09487 µM),relative viability (AT9283 + Bortezomib; first compound 0.3 µM)
201T,0.694,0.651,0.692,0.664,0.968,0.933,1.01,0.854,0.964,1,0.486,0.378,1.01,1.03,1.08,0.934,1.02,1.14,1.09,0.487
A549,0.471,0.529,0.582,0.406,0.546,0.523,0.63,0.489,–,–,–,–,0.957,0.979,1.06,0.94,–,–,–,–
A-427,0.826,0.682,0.829,0.76,1.15,1.1,1.12,1.12,0.822,0.486,0.319,0.176,1.04,1.02,1.12,0.94,0.977,0.427,0.216,0.188
ABC-1,0.656,0.71,0.847,0.589,0.928,0.674,0.776,0.686,0.579,0.246,0.275,0.189,1.26,1.25,1.3,0.971,1.05,0.261,0.117,0.283
BEN,0.466,0.483,0.683,0.514,0.96,0.893,1.16,0.891,0.28,0.336,0.198,0.107,0.689,0.802,1.03,0.735,0.688,0.739,0.242,0.27
CAL-12T,0.277,0.388,0.419,0.274,0.804,0.654,0.5,0.368,0.149,0.548,0.627,0.18,0.815,0.704,0.68,0.543,0.89,0.896,0.547,0.212
COR-L23,0.898,0.692,1.04,0.656,1.21,0.95,1.07,–,0.73,0.27,0.151,0.165,0.944,0.979,1.16,0.96,1.05,0.664,0.23,0.152
COR-L 105,0.406,0.342,0.351,0.332,0.907,0.532,0.385,0.289,1.02,0.334,0.401,0.33,0.368,0.322,0.335,0.36,0.758,0.303,0.352,0.249
Calu-6,0.94,0.856,0.913,0.817,1.01,0.913,0.902,0.816,–,–,–,–,1.12,–,1.1,0.979,0.956,0.297,0.272,0.254
ChaGo-K-1,0.472,0.659,1.05,0.508,–,–,–,–,0.63,0.422,0.289,0.26,–,–,–,–,0.889,0.908,0.356,0.303
EBC-1,0.382,0.322,0.309,0.259,0.918,0.969,1.06,0.699,–,–,–,–,0.23,0.19,0.221,0.22,0.526,0.239,0.172,0.169
EKVX,0.405,0.217,0.191,0.109,0.941,0.395,0.235,0.117,0.874,0.836,0.555,0.307,0.206,0.178,0.192,0.186,0.996,0.652,0.636,0.351
EMC-BAC-2,0.543,0.535,0.542,0.47,0.795,0.705,0.703,0.584,1.21,0.358,0.318,0.289,0.934,0.828,–,0.822,1.04,0.792,0.216,0.204
EPLC-272H,0.314,0.279,0.352,0.242,1.11,1.18,1.06,0.802,0.332,0.246,0.133,0.149,0.923,1.1,1.24,0.763,0.786,0.831,0.802,0.122
